# Experimental data as given in patent US9303035B2, “Substituted pyrazino[1′,2′:1,2]pyrrolo[3,4-d]pyrimidines, pyrimido[4′,5′:3,4]pyrrolo[2,1-c][1,4]oxazines and pyrimido[4′,5′:3,4]pyrrolo[1,2-d][1,4]oxazepines for inhibiting the CFTR channel” (Novartis AG, priority 2012, dated 2016).
# Target: CFTR (WT-CFTR channels stably expressed in CHO cells) (Homo sapiens (Human), UniProt P13569)
# Assay: IonWorks Quattro CFTR inhibitor assay (whole-cell population patch clamp, forskolin-activated current)
# Type: cell-based
# Settings: inward current (−100 mV); CHO cells stably expressing WT-CFTR; CFTR activated with 10 μM forskolin; 10 min compound incubation
# Excerpt: CFTR activity can be quantified by electrophysiology methods, using the whole-cell configuration of the patch clamp technique (Hamill O, Marty A, Neher E, Sakmann B and Sigworth F. ‘Improved patch-clamp techniques for high resolution current recording from cells and cell-free membrane patches.’ Pflugers Archive 1981 391: 85-100). This assay directly measures the currents associated with chloride flow through CFTR channels whilst either maintaining or adjusting the transmembrane voltage. This assay can use either single glass micropipettes or parallel planar arrays to measure CFTR activity from native or recombinant cell systems. Currents measured using parallel planar arrays can be quantified using an appropriately equipped instrument such as the IonWorks Quattro (Molecular Devices Corporation, Sunnyvale, Calif.). The Quattro system can measure CFTR currents from either a single cell per recording well (HT configuration) or alternatively from a population of 64 cells per well (Population Patch Clamp PPC) (Finkel A, Wittel A, Yang N, Handran S, Hughes J, Costantin J. ‘Population patch clamp improves data consistency and success rates in the measurement of ionic currents.’ J Biomol Screen. 2006 August; 11(5):488-96).
# Chinese hamster ovary (CHO) cells stably expressing WT-CFTR channels were used for the IonWorks Quattro experiments. Cells were maintained at 37° C. in 5% v/v CO2 at 100% humidity in MEM alpha medium supplemented with 10% (v/v) FCS, 100 U/mL Penicillin/Streptomycin, and 100 μg/L methotrexate. For experiments, cells were grown in 225 cm^2 tissue culture flasks until almost confluent. Cells were removed from the flask using trypsin-EDTA and resuspended in extracellular recording solution for immediate experimentation.
# Cells, at a density of 1.5-2 million per mL, were placed on the Quattro system, added to the planar patch plate and seals allowed to establish for 5-10 mins. After assessing seal resistances (typically >50 MΩ), whole-cell access was obtained by perforation with 100 μg/mL amphotericin B. Baseline currents were measured by a pre-compound scan obtained by application of a voltage ramp from −100 to +100 mV. CFTR was activated by the addition of 10 μM forskolin to each of the 384 wells of the patch plate. After 5 min incubation the post-compound 1 currents were measured, again by application of a voltage ramp from −100 to +100 mV. Test compounds, diluted from 10 mM stocks in DMSO in extracellular solution were then added to the patch plate and were incubated for a further 10 min. The post-compound 2 currents were measured by the application of the same voltage ramp from −100 to +100 mV. The inhibition of CFTR was determined from the difference in current between the forskolin addition (post-compound 1) and the test compound (post-compound 2). This was determined at both −100 mV and +100 mV which represents the inward and outward current respectively.
# Extracellular solution (ECS): 145 mM NaCl, 4 mM CsCl, 5 mM D-glucose, 10 mM TES, 1 mM CaCl2, 1 mM MgCl2, pH 7.4 NaOH
# Intracellular solution (ICS): 113 mM L-Aspartic acid, 113 mM CsOH, 27 mM CsCl, 1 mM NaCl, 1 mM MgCl2, 1 mM EGTA, 10 mM TES. pH 7.2 with CsOH. Filter sterilized before use.
# Sequence of CFTR (WT-CFTR channels stably expressed in CHO cells) (P13569 whole entry): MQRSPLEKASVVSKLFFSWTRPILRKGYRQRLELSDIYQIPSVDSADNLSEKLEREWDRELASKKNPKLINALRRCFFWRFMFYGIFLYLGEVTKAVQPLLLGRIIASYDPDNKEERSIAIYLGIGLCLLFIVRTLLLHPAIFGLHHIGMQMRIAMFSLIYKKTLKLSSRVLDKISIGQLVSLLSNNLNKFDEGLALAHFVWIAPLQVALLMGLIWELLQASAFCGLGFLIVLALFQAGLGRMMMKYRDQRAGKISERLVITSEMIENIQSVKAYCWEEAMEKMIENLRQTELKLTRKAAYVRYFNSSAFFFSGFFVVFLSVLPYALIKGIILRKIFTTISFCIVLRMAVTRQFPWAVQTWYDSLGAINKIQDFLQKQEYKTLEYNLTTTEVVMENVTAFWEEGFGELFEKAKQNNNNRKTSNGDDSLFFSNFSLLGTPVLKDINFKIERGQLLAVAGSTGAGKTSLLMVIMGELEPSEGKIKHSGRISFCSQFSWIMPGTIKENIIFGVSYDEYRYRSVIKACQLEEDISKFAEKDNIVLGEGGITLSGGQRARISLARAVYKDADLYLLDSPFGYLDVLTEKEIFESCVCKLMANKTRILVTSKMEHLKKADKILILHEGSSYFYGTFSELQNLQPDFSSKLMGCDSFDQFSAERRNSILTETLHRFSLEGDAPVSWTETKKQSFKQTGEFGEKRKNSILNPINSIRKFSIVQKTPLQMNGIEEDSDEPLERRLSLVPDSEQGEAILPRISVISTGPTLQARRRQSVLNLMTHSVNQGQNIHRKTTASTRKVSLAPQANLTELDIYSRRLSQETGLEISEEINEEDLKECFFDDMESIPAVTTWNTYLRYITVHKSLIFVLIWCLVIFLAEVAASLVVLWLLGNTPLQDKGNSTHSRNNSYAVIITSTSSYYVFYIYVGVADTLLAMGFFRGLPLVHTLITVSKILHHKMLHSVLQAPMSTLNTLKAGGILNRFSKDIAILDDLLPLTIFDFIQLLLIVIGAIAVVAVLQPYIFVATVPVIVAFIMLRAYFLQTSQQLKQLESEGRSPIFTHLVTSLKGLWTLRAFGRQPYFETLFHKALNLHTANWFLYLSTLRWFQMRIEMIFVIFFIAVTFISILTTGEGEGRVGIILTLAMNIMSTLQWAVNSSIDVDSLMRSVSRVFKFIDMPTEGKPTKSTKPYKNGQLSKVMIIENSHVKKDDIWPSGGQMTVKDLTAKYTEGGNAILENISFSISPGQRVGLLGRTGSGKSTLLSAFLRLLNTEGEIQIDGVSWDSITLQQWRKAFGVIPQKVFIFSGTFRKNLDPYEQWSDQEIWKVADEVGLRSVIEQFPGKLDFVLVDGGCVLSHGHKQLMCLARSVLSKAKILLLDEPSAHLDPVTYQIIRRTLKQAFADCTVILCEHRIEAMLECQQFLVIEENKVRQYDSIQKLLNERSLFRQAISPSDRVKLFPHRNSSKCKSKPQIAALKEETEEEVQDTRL
row,SMILES,IC50
1,"Cc1ccc(C2NCCn3c(-c4ccccc4)c4c(=O)n(C)c(=O)n(C)c4c32)o1 (racemic) [Example 1.1, 1,3-Dimethyl-10-(5-methylfuran-2-yl)-5-phenyl-7,8,9,10-tetrahydropyrazino[1′,2′:1,2]pyrrolo[3,4-d]pyrimidine-2,4(1H,3H)-dione]",4.64 µM
2,"Cc1ccc([C@H]2NCCn3c(-c4ccccc4)c4c(=O)n(C)c(=O)n(C)c4c32)o1 (single isomer, unassigned) [Example 1.3]",> 30 µM
3,"Cn1c(=O)c2c(-c3ccccc3)n3c(c2n(C)c1=O)C(c1nc(C(F)(F)F)cs1)NCC3 (single isomer, unassigned) [Example 2.4, 1,3-Dimethyl-5-phenyl-10-(4-(trifluoromethyl)thiazol-2-yl)-7,8,9,10-tetrahydropyrazino[1′,2′:1,2]pyrrolo[3,4-d]pyrimidine-2,4(1H,3H)-dione]",4.98 µM
4,"Cn1c(=O)c2c(-c3ccccc3)n3c(c2n(C)c1=O)C(C1CCCCC1)NCC3 (single isomer, unassigned) [Example 2.6, 10-Cyclohexyl-1,3-dimethyl-5-phenyl-7,8,9,10-tetrahydropyrazino[1′,2′:1,2]pyrrolo[3,4-d]pyrimidine-2,4(1H,3H)-dione]",7.62 µM
5,"Cn1c(=O)c2c(-c3cccc(C#N)c3)n3c(c2n(C)c1=O)C(c1ccc(Cl)o1)NCC3 (single isomer, unassigned) [Example 2.9, 3-(10-(5-chlorofuran-2-yl)-1,3-dimethyl-2,4-dioxo-1,2,3,4,7,8,9,10-octahydropyrazino[1′,2′:1,2]pyrrolo[3,4-d]pyrimidin-5-yl)benzonitrile]",0.59 µM
6,"Cn1c(=O)c2c(-c3nc(CO)cs3)n3c(c2n(C)c1=O)C(c1ccc(Cl)o1)O[C@@H](CO)C3 (single isomer, unassigned) [Example 7.1a, 10-(5-Chlorofuran-2-yl)-8-(hydroxymethyl)-5-(4-(hydroxymethyl)thiazol-2-yl)-1,3-dimethyl-7,8-dihydro-1H-pyrimido[4′,5′:3,4]pyrrolo[2,1-c][1,4]oxazine-2,4(3H,10H)-dione]",0.61 µM
7,"Cc1csc(-c2c3c(=O)n(C)c(=O)n(C)c3c3n2C[C@H](CO)O[C@H]3c2ccc(Cl)o2)n1 (stereo in doubt) [Example 7.0a, 10-(5-chlorofuran-2-yl)-8-(hydroxymethyl)-1,3-dimethyl-5-(4-methylthiazol-2-yl)-7,8-dihydro-1H-pyrimido[4′,5′:3,4]pyrrolo[2,1-c][1,4]oxazine-2,4(3H,10H)-dione]",0.09 µM
8,"Cn1c(=O)c2c(-c3cccc(Cl)c3)n3c(c2n(C)c1=O)[C@H](c1nc(Cl)cs1)O[C@@H](CO)C3 (stereo in doubt) [Example 8.0a, 5-(3-Chlorophenyl)-10-(4-chlorothiazol-2-yl)-8-(hydroxymethyl)-1,3-dimethyl-7,8-dihydro-1H-pyrimido[4′,5′:3,4]pyrrolo[2,1-c][1,4]oxazine-2,4(3H,10H)-dione]",0.07 µM
9,"Cn1c(=O)c2c(-c3cccc(Cl)c3)n3c(c2n(C)c1=O)[C@H](c1ccc(Cl)o1)O[C@@H](CO)C3 (stereo in doubt) [Example 8.1a, 10-(5-Chlorofuran-2-yl)-5-(3-chlorophenyl)-8-(hydroxymethyl)-1,3-dimethyl-7,8-dihydro-1H-pyrimido[4′,5′:3,4]pyrrolo[2,1-c][1,4]oxazine-2,4(3H,10H)-dione]",0.12 µM
10,"Cc1ccc([C@@H]2NCCn3c(-c4ccccc4)c4c(=O)n(C)c(=O)n(C)c4c32)o1 [Example 1.2, (R)-1,3-Dimethyl-10-(5-methylfuran-2-yl)-5-phenyl-7,8,9,10-tetrahydropyrazino[1′,2′:1,2]pyrrolo[3,4-d]pyrimidine-2,4(1H,3H)-dione]",1.58 µM
11,"Cn1c(=O)c2c(-c3ccccc3)n3c(c2n(C)c1=O)C(c1nccs1)NCC3 (stereo not shown) [Example 1.7, 1,3-Dimethyl-5-phenyl-10-(thiazol-2-yl)-7,8,9,10-tetrahydropyrazino[1′,2′:1,2]pyrrolo[3,4-d]pyrimidine-2,4(1H,3H)-dione]",5.42 µM
12,"Cn1c(=O)c2c(-c3ccccc3)n3c(c2n(C)c1=O)C(c1nc(C(F)(F)F)cs1)NCC3 (stereo not shown) [Example 1.9, 1,3-Dimethyl-5-phenyl-10-(4-(trifluoromethyl)thiazol-2-yl)-7,8,9,10-tetrahydropyrazino[1′,2′:1,2]pyrrolo[3,4-d]pyrimidine-2,4(1H,3H)-dione]",6.31 µM
13,"CCc1ccc(C2NCCn3c(-c4ccccc4)c4c(=O)n(C)c(=O)n(C)c4c32)o1 (stereo not shown) [Example 1.10, 10-(5-Ethylfuran-2-yl)-1,3-dimethyl-5-phenyl-7,8,9,10-tetrahydropyrazino[1′,2′:1,2]pyrrolo[3,4-d]pyrimidine-2,4(1H,3H)-dione]",6.37 µM
14,"Cn1ccc(C2NCCn3c(-c4ccccc4)c4c(=O)n(C)c(=O)n(C)c4c32)n1 (stereo not shown) [Example 1.12, 1,3-Dimethyl-10-(1-methyl-1H-pyrazol-3-yl)-5-phenyl-7,8,9,10-tetrahydropyrazino[1′,2′:1,2]pyrrolo[3,4-d]pyrimidine-2,4(1H,3H)-dione]",10.8 µM

# The remaining lines, values ahead:
row,IC50,SMILES
1,4.23 µM,"Cc1ccc(C2OCCn3c(-c4ccccc4)c4c(=O)n(C)c(=O)n(C)c4c32)o1 (racemic) [Example 4.1, 1,3-Dimethyl-10-(5-methylfuran-2-yl)-5-phenyl-7,8-dihydro-1H-pyrimido[4′,5′:3,4]pyrrolo[2,1-c][1,4]oxazine-2,4(3H,10H)-dione]"
2,> 30 µM,"Cc1ccc(C2OCCn3c(-c4ccccc4)c4c(=O)n(C)c(=O)n(C)c4c32)o1 (single isomer, unassigned) [Example 4.2, 1,3-dimethyl-10-(5-methylfuran-2-yl)-5-phenyl-7,8-dihydro-1H-pyrimido[4′,5′:3,4]pyrrolo[2,1-c][1,4]oxazine-2,4(3H,10H)-dione]"
3,3.16 µM,"Cc1ccc(C2OCCn3c(-c4ccccc4)c4c(=O)n(C)c(=O)n(C)c4c32)o1 (single isomer, unassigned) [Example 4.3, 1,3-dimethyl-10-(5-methylfuran-2-yl)-5-phenyl-7,8-dihydro-1H-pyrimido[4′,5′:3,4]pyrrolo[2,1-c][1,4]oxazine-2,4(3H,10H)-dione]"
4,8.06 µM,"Cn1c(=O)c2c(-c3cccc(C#N)c3)n3c(c2n(C)c1=O)[C@@H](c1nc(Cl)cs1)O[C@H](CO)C3 (single isomer, unassigned) [Example 9b, 3-(10-(4-Chlorothiazol-2-yl)-8-(hydroxymethyl)-1,3-dimethyl-2,4-dioxo-2,3,4,7,8,10-hexahydro-1H-pyrimido[4′,5′:3,4]pyrrolo[2,1-c][1,4]oxazin-5-yl)benzonitrile]"
5,0.24 µM,"Cn1c(=O)c2c(-c3cccc(C#N)c3)n3c(c2n(C)c1=O)[C@H](c1ccc(Cl)o1)O[C@@H](CO)C3 (stereo in doubt) [Example 6.1, 3-(10-(5-chlorofuran-2-yl)-8-(hydroxymethyl)-1,3-dimethyl-2,4-dioxo-2,3,4,7,8,10-hexahydro-1H-pyrimido[4′,5′:3,4]pyrrolo[2,1-c][1,4]oxazin-5-yl)benzonitrile]"
6,5.07 µM,"Cc1cccc(-c2c3c(=O)n(C)c(=O)n(C)c3c3n2C[C@H](C)O[C@H]3c2ccc(Cl)o2)c1 (stereo in doubt) [Example 12.1, 10-(5-chlorofuran-2-yl)-1,3,8-trimethyl-5-(m-tolyl)-7,8-dihydro-1H-pyrimido[4′,5′:3,4]pyrrolo[2,1-c][1,4]oxazine-2,4(3H,10H)-dione]"
7,0.24 µM,"COC[C@@H]1Cn2c(-c3cccc(Cl)c3)c3c(=O)n(C)c(=O)n(C)c3c2[C@H](c2ccc(Cl)o2)O1 (stereo in doubt) [Example 12.2, 10-(5-chlorofuran-2-yl)-5-(3-chlorophenyl)-8-(methoxymethyl)-1,3-dimethyl-7,8-dihydro-1H-pyrimido[4′,5′:3,4]pyrrolo[2,1-c][1,4]oxazine-2,4(3H,10H)-dione]"
8,0.54 µM,"CN(C)C[C@@H]1Cn2c(-c3cccc(Cl)c3)c3c(=O)n(C)c(=O)n(C)c3c2[C@H](c2ccc(Cl)o2)O1 (stereo in doubt) [Example 12.4, 10-(5-chlorofuran-2-yl)-5-(3-chlorophenyl)-8-((dimethylamino)methyl)-1,3-dimethyl-7,8-dihydro-1H-pyrimido[4′,5′:3,4]pyrrolo[2,1-c][1,4]oxazine-2,4(3H,10H)-dione]"
